Results as given in patent publication US11447449B2, “Inhibitors of indoleamine 2,3-dioxygenase and methods of their use” (BRISTOL-MYERS SQUIBB COMPANY, priority 2018, dated 2022).
In brackets after ≈: the same amount, converted by molar mass. Read-outs that look alike come from different tables or passages of the source.

What was measured:
[1] = Thermodynamic equilibrium aqueous solubility; format: physicochemical; settings: thermodynamic from solid, 18-24 hours at room temperature, read-out: Solubility (μg/mL) pH 1.0, 4.0, 6.5, 7.4 buffers
Description: Thermodynamic Equilibrium Aqueous Solubility Evaluation
The calibration standard is prepared by accurately weighing 0.3-0.7 mg of sample into 5 ml volumetric flask and then dissolved in pure methanol. If the standard material is not fully soluble in methanol, other solvents such as DMSO or mixed solvent systems can used.
The calibration standard is typically prepared fresh, before the start of the assay. Note the calibration standard must be fully dissolved. A single point calibration curve is used to determine the concentration of the final saturated solution.
The saturated solution is prepared by adding 1.0 ml of the appropriate aqueous solvent to the remaining portion/portions of material (˜1 mg/l ml) into the 1 dram submission vial. The solution is sonicated and vortexed for ˜30 seconds. The sample solution is placed on an orbiter that continually agitates the sample solutions for 18-24 hours at room temperature. The saturated solution is then transferred to a 1.5 ml eppendorf tube and centrifuged for ˜2 min. at 10000 rpms. The supernatant from the saturated solution is filtered, using a 0.45 μm PTFE syringe filter, into a 1.5 mL glass HPLC.
The standards and sample are analyzed by HPLC using either UV/Vis diode array or variable wavelength detection. Typical quantitation wavelengths are 210 or 254 nm; detection wavelength can be individually customized to optimize sensitivity. In addition to UV detection, mass spectrometry detection is recommended in order to confirm the Mass of the peak of interest.
Dilutions of saturated aqueous test solutions are performed if HPLC-UV peak is beyond the linear portion of the standard calibration curve. Typical dilutions include 100 μl/900 μl (×10) or 500 μl/500 μl (2×), as required.
HPLC grade solvents are employed.

[2] = target: T1, indoleamine 2,3-dioxygenase (IDO) (Homo sapiens, UniProt P14902); assay: HeLa cell-based indoleamine 2,3-dioxygenase (IDO) assay, kynurenine production; settings: HeLa cells, IFNγ 25 ng/mL, 48 hour incubation
T1 construct: endogenous in cells; host or cells: HeLa (ATCC CCL-2), stimulated with IFN-gamma at 25 ng/mL
T1 sequence (P14902 whole entry): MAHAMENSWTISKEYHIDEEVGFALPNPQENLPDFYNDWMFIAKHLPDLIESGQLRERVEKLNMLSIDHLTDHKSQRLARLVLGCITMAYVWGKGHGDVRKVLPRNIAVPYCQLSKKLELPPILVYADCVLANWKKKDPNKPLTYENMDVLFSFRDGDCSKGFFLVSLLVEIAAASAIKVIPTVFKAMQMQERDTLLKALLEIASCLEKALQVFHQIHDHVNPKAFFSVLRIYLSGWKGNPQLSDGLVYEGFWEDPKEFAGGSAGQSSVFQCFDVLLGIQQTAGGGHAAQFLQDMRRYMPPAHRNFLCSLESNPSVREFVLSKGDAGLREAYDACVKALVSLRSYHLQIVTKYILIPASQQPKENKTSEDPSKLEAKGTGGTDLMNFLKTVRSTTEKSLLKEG
Description: Assessment of inhibitor activity in HeLa cell-based indoleamine 2,3-dioxygenase (IDO) assay:
HeLa (ATCC® CCL-2) cells were obtained from the ATCC® and cultured in Dulbecco's Modified Eagle Medium supplemented with 4.5 g/L glucose, […] (#10-013-CV, Corning), 2 mM L-alanyl-L-glutamine dipeptide (#35050-061, Gibco), 100U/mL penicillin, 100 μg/mL streptomycin (#SV30010, HyClone) and 10% fetal bovine serum (#SH30071.03 HyClone). Cells were maintained in a humidified incubator at 37° C. in 5% CO2.
IDO activity was assessed as a function of kynurenine production as follows: HeLa cells were seeded in a 96-well culture plate at a density of 5,000 cells/well and allowed to equilibrate overnight. After 24 hours, the media was aspirated and replaced with media containing IFNγ (#285-IF/CF, R&D Systems) at a final concentration of 25 ng/mL. A serial dilution of each test compound was added to the cells in a total volume of 200 μL of culture medium. […] Kynurenine concentrations were determined by measuring absorbance at 480 nm and calibrating against an L-kynurenine (#K8625, Sigma-Aldrich) standard curve using a SPECTRAMAX® M2e microplate reader (Molecular Devices). The percentage activity at each inhibitor concentration was determined and IC50 values assessed using nonlinear regression.

[3] = target: T2, human IDO1 (Homo sapiens, UniProt P14902); assay: Human IDO1/HEK293 cell IDO inhibition assay; format: cell-based; settings: human IDO1/HEK293 cells, 20 hours; read-out: IDO1 HEK Human IC50
T2 construct: expressed in transfected cells
T2 sequence (P14902 whole entry): as above
Description: HEK293 cells were transfected with a pCDNA-based mammalian expression vector harboring human IDO1 cDNA (NM 002164.2) by electroporation. They were cultured in medium (DMEM with 10% FBS) containing 1 mg/ml G418 for two weeks. Clones of HEK293 cells that stably expressed human IDO1 protein were selected and expanded for IDO inhibition assay.
The human IDO1/HEK293 cells were seeded at 10,000 cells per 50 μL per well with RPMI/phenol red free media contains 10% FBS in a 384-well black wall clear bottom tissue culture plate (Matrix Technologies LLC) 100 nL of certain concentration of compound was then added to each well using ECHO liquid handling systems. The cells were incubated for 20 hours in 37° C. incubator with 5% CO2.
The compound treatments were stopped by adding trichloroacetic acid (Sigma-Aldrich) to a final concentration at 0.2%. The cell plate was further incubated at 50° C. for 30 minute. The equal volume supernatant (20 μL) and 0.2% (w/v) Ehrlich reagent (4-dimethylaminobenzaldehyde, Sigma-Aldrich) in glacial acetic acid were mixed in a new clear bottom 384-well plate. This plate was then incubated at room temperature for 30 minute. The absorbance at 490 nm was measured on Envision plate reader. […]

[4] = aqueous buffer pH 1.0, simulated gastric fluid, pH 1.0 buffer
[5] = aqueous buffer pH 4.0, aqueous buffer, pH 4.0 buffer
[6] = aqueous buffer pH 6.5, aqueous buffer, pH 6.5 buffer
[7] = aqueous buffer pH 7.4, aqueous buffer, pH 7.4 buffer

SMILES | solubility [1, 4] [µg/mL] | solubility [1, 7] [µg/mL] | IC50 [2] [nM] | IC50 [3] [nM] | solubility [1, 5] [µg/mL] | solubility [1, 6] [µg/mL]
CC[C@@H](CC(=O)OC(C)OC(=O)N(C)c1ncccc1COP(=O)(O)O)c1ccc(N(CC(C)C)CC(C)C)c(NC(=O)Nc2ccc(C)cc2)c1 (stereo partly drawn) [Example 20, (3S)-1-((Methyl(3-((phosphonooxy)methyl)pyridin-2-yl)carbamoyl)oxy)ethyl 3-(4-(diisobutylamino)-3-(3-(p-tolyl)ureido)phenyl)pentanoate] | 35 (≈ 47.2 µM) | > 500 |  |  | > 500 | > 500
CCOP(=O)(O)OCOC(=O)C[C@H](CC)c1ccc(N(CC(C)C)CC(C)C)c(NC(=O)Nc2ccc(C)cc2)c1 [Example 9, (3S)-((Ethoxy(hydroxy)phosphoryl)oxy)methyl 3-(4-(diisobutylamino)-3-(3-(p-tolyl)ureido)phenyl)pentanoate] | 215 (≈ 363 µM) | > 2000 |  |  | > 1100 | > 2000

Now from value to molecule, other results behind:

solubility [1, 4] [µg/mL] | solubility [1, 7] [µg/mL] | IC50 [2] [nM] | IC50 [3] [nM] | SMILES | solubility [1, 5] [µg/mL] | solubility [1, 6] [µg/mL]
15 (≈ 22.5 µM) | 16 (≈ 24 µM) |  |  | CC[C@@H](CC(=O)OCOC(=O)OCC(C)OP(=O)(O)O)c1ccc(N(CC(C)C)CC(C)C)c(NC(=O)Nc2ccc(C)cc2)c1 (stereo partly drawn) [Example 22, (3S)-(((2-(Phosphonooxy)propoxy)carbonyl)oxy)methyl 3-(4-(diisobutylamino)-3-(3-(p-tolyl)ureido)phenyl)pentanoate] | > 500 | 22 (≈ 33 µM)
24 (≈ 36.9 µM) | 158 (≈ 243 µM) |  |  | CC[C@@H](CC(=O)OCOC(=O)CCCOP(=O)(O)O)c1ccc(N(CC(C)C)CC(C)C)c(NC(=O)Nc2ccc(C)cc2)c1 [Example 4, (S)-((4-(Phosphonooxy)butanoyl)oxy)methyl 3-(4-(diisobutylamino)-3-(3-(p-tolyl)ureido) Phenyl) Pentanoate] | > 500 | > 500
630 (≈ 1390 µM) | 1 (≈ 2.2 µM) | 4.1 | 3.1 | CC[C@@H](CC(=O)O)c1ccc(N(CC(C)C)CC(C)C)c(NC(=O)Nc2ccc(C)cc2)c1 [Example 1E, (S)-3-(4-(diisobutylamino)-3-(3-(p-tolyl)ureido)phenyl)pentanoic Acid] |  | 
